The source of these data is patent US7749316B2, “Water-based inks for ink-jet printing” (Kao Corporation, priority 2006, dated 2010).

Data set [1] is described as follows: Surface tension of water containing nonionic organic compound. To be noted: 0.001 g of compound in 100 g of water, 25° C. Format: physicochemical. An excerpt: The lower limit of the surface tension is preferably 40 mN/m or more.
Data set [2] is described as follows: Solubility of nonionic organic compound in water. To be noted: for solubility in 100 g of water: in 100 g of water as measured at 25° C.; for Solubility of nonionic organic compound: saturated solubility in 100 g of water, 25° C.
Procedure: The solubility is expressed by a saturated solubility of the nonionic organic compound in 100 g of water. The stirring for the measurement was conducted within 1 h.

Molecules are shown by their SMILES.

Take `CCCCCCCCC(O)CO` (centres unmarked) [1,2-decanediol]: in data set [1], the “Surface tension of water containing nonionic organic compound” value (from here on “Surface tension”) turned out to be 55 mN/m. For the same compound, the “solubility in 100 g of water” value in data set [2] is given as 0.055 g.
On the same counts, the results for `CCCCCCC(O)CO` (centres unmarked) [1,2-octanediol] are 65 mN/m and 0.20 g.
Consider `CCCCC(CC)COCC(O)CO` (centres unmarked) [2-ethylhexyl glyceryl ether], for which the “Surface tension” value in data set [1] was found to be 62 mN/m. In data set [2], the “solubility in 100 g of water” value is 0.15 g.
In the case of `CCCCCCCCCCC(O)CO` (centres unmarked) [PO-1, 1,2-Dodecanediol], the “Surface tension” value in data set [1] came out at 47.1 mN/m. Moreover, in data set [2], the “solubility in 100 g of water” value stood at 0.001 g and the “Solubility of nonionic organic compound” value is on record as 0.001 g/100 g.
On to `CCCCCCCCCCCC(=O)OCC(O)CO` (centres unmarked) [PO-2, Dodecanoic acid monoglyceride], for which the “Surface tension” value in data set [1] stood at 65 mN/m; in data set [1] (listed as lauric acid monoglyceride), 63 mN/m. The “solubility in 100 g of water” value in data set [2] worked out at 0.005 g. Further, in data set [2], the “Solubility of nonionic organic compound” value was 0.15 g/100 g.
As for `CC(C)CCCCCCCOCC(O)CO` (centres unmarked) [PO-3, Isodecyl monoglyceryl ether], the “Surface tension” value in data set [1] is reported as 57.8 mN/m. In data set [2], the “solubility in 100 g of water” value is 0.05 g and the “Solubility of nonionic organic compound” value was found to be 0.05 g/100 g.
As for `CCCCCCCCCC(=O)OCC(O)CO` (centres unmarked) [decanoic acid monoglyceride], the “Surface tension” value in data set [1] came out at 65 mN/m.
